Legend:
ZEAMX (Corn, Field) = experiment: Preemergence herbicidal evaluation; format: in vivo, Zea mays, L.; details: rated 4-5 weeks after treatment
[1] = test system: CYPSE (Cyperus serotinus); experiment: Flooded paddy, preemergence weed control; format: in vivo, Rottb.; details: rated 3-4 weeks after treatment, 0-9 rating scale
Outline: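 Herbicidal effect was scored visually on a 0–9 scale against an untreated control 3–4 weeks after treatment. Compounds were applied preemergence as 50/50 v/v aqueous/acetone mixtures into flood water (1.5–3 cm deep over silt loam), at roughly 0.0080 to 0.1250 kg/ha active ingredient.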

[2] = test system: TRZAWR (Wheat, Winter, cv Riband); experiment: Postemergence herbicidal evaluation; format: in vivo, Triticum aestivum; details: for TRZAWR herbicidal rating: postemergence
Outline: (§1)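 Visual 0–9 injury scores versus control plants, covering stand, vigour, malformation, size, chlorosis and general appearance, taken four to five weeks post-spray and averaged over replicate tests. Plants were sprayed at roughly two weeks old and held on greenhouse benches.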

[3] = test system: ABUTH (Abutilon theophrasti); experiment: Preemergence herbicidal evaluation; format: in vivo, Medic.; details: rated 4-5 weeks after treatment
[4] = test system: GLXMAW (Soybean, Williams); experiment: Preemergence herbicidal evaluation; format: in vivo, Glycine max, (L.) Merr. cv Williams; details: rated 4-5 weeks after treatment
[5] = test system: TRZAWR (Wheat, Winter, cv Riband); experiment: Preemergence herbicidal evaluation; format: in vivo, Triticum aestivum; details: rated 4-5 weeks after treatment
Outline: (§2)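 Steps: mix seeds with potting soil; plant on ~1 inch soil per cup; spray compound in aqueous acetone; hold on greenhouse benches with routine watering; rate 0–9 visually against control at 4–5 weeks.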

GALAP (Galium aparine) = experiment: Preemergence herbicidal evaluation; format: in vivo; details: rated 4-5 weeks after treatment
Outline: as §2

[6] = test system: CHEAL (Chenopodium album); experiment: Postemergence herbicidal evaluation; format: in vivo, L.; details: for CHEAL herbicidal rating: postemergence
Outline: as §1

[7] = test system: CASOB (Cassia obtusifolia); experiment: Postemergence herbicidal evaluation; format: in vivo, L.; details: for CASOB herbicidal rating: postemergence
Outline: as §1

[8] = test system: AMBEL (Ambrosia artemisifolia); experiment: Postemergence herbicidal evaluation; format: in vivo, L.; details: for AMBEL herbicidal rating: postemergence
Outline: as §1

Cn1c(C(F)(F)F)cc(=O)n(-c2ccc3snc(C4OCCCS4)c3c2)c1=O (stereo not drawn) [Compound 34, 1-methyl-3-[3-(1,3-oxathian-2-yl)-1,2-benzisothiazol-5-yl]-6-(trifluoromethyl)uracil]
4.0: TRZAWR herbicidal rating ([2]; rate 0.0320 kg/ha)
7.0: ZEAMX preemergence herbicidal rating (ZEAMX (Corn, Field); Rate 0.1250 kg/ha) | Preemergence herbicidal rating GLXMAW ([4]; Rate 0.1250 kg/ha) | Preemergence herbicidal rating GLXMAW ([4]; Rate 0.2500 kg/ha) | TRZAWR preemergence herbicidal rating ([5]; Rate 0.1250 kg/ha) | Preemergence herbicidal rating TRZAWR ([5]; Rate 0.2500 kg/ha) | CHEAL herbicidal rating ([6]; rate 0.0320 kg/ha) | Postemergence herbicidal rating, CHEAL ([6]; rate 0.0320 kg/ha) | AMBEL herbicidal rating ([8]; rate 0.0320 kg/ha)
6.5: Preemergence herbicidal rating ZEAMX (ZEAMX (Corn, Field); Rate 0.2500 kg/ha) | TRZAWR herbicidal rating ([2]; rate 0.0620 kg/ha) | Preemergence herbicidal rating GLXMAW ([4]; Rate 0.0620 kg/ha)
6.0: Preemergence herbicidal rating ZEAMX (ZEAMX (Corn, Field); Rate 0.1250 kg/ha) | CASOB herbicidal rating ([7]; rate 0.0320 kg/ha) | CASOB herbicidal rating ([7]; rate 0.0620 kg/ha)
7.5: GLXMAW preemergence herbicidal rating ([4]; Rate 0.0620 kg/ha)
9.0: ZEAMX preemergence herbicidal rating (ZEAMX (Corn, Field); Rate 0.2500 kg/ha) | herbicidal rating, CYPSE ([1]; rate 0.0620 kg/ha) | herbicidal rating, CYPSE ([1]; rate 0.1250 kg/ha) | ABUTH preemergence herbicidal rating ([3]; Rate 0.0620 kg/ha) | Preemergence herbicidal rating ABUTH ([3]; Rate 0.0620 kg/ha) | ABUTH preemergence herbicidal rating ([3]; Rate 0.1250 kg/ha) | Preemergence herbicidal rating ABUTH ([3]; Rate 0.1250 kg/ha) | ABUTH preemergence herbicidal rating ([3]; Rate 0.2500 kg/ha) | Preemergence herbicidal rating ABUTH ([3]; Rate 0.2500 kg/ha) | GLXMAW preemergence herbicidal rating ([4]; Rate 0.1250 kg/ha) | GLXMAW preemergence herbicidal rating ([4]; Rate 0.2500 kg/ha) | Preemergence herbicidal rating GALAP (GALAP (Galium aparine); Rate 0.0620 kg/ha) | GALAP preemergence herbicidal rating (GALAP (Galium aparine); Rate 0.1250 kg/ha) | Preemergence herbicidal rating GALAP (GALAP (Galium aparine); Rate 0.1250 kg/ha) | GALAP preemergence herbicidal rating (GALAP (Galium aparine); Rate 0.2500 kg/ha) | Preemergence herbicidal rating GALAP (GALAP (Galium aparine); Rate 0.2500 kg/ha) | CHEAL herbicidal rating ([6]; rate 0.0620 kg/ha) | Postemergence herbicidal rating, CHEAL ([6]; rate 0.0620 kg/ha) | Postemergence herbicidal rating, CASOB ([7]; rate 0.0320 kg/ha) | Postemergence herbicidal rating, CASOB ([7]; rate 0.0620 kg/ha) | AMBEL herbicidal rating ([8]; rate 0.0620 kg/ha) | Postemergence herbicidal rating, AMBEL ([8]; rate 0.0320 kg/ha) | Postemergence herbicidal rating, AMBEL ([8]; rate 0.0620 kg/ha)
8.0: TRZAWR preemergence herbicidal rating ([5]; Rate 0.2500 kg/ha)
5.5: Postemergence herbicidal rating, TRZAWR ([2]; rate 0.0320 kg/ha) | Postemergence herbicidal rating, TRZAWR ([2]; rate 0.0620 kg/ha)
4.5: Preemergence herbicidal rating ZEAMX (ZEAMX (Corn, Field); Rate 0.0620 kg/ha)
5.0: ZEAMX preemergence herbicidal rating (ZEAMX (Corn, Field); Rate 0.0620 kg/ha) | TRZAWR preemergence herbicidal rating ([5]; Rate 0.0620 kg/ha) | Preemergence herbicidal rating TRZAWR ([5]; Rate 0.0620 kg/ha) | Preemergence herbicidal rating TRZAWR ([5]; Rate 0.1250 kg/ha) | GALAP preemergence herbicidal rating (GALAP (Galium aparine); Rate 0.0620 kg/ha)

CC(=O)N1CCSC1c1nsc2ccc(-n3c(=O)cc(C(F)(F)F)n(C)c3=O)cc12 (stereo not drawn) [Compound 29, 3-acetyl-2-[5-[3,6-dihydro-3-methyl-2,6-dioxo-4-(trifluoromethyl)-1(2H)-pyrimidinyl]-1,2-benzisothiazol-3-yl]thiazolidine]
6.5: GLXMAW preemergence herbicidal rating ([4]; Rate 0.0620 kg/ha)
5.0: Postemergence herbicidal rating, CASOB ([7]; rate 0.0620 kg/ha)
7.0: ZEAMX preemergence herbicidal rating (ZEAMX (Corn, Field); Rate 0.1250 kg/ha) | ZEAMX preemergence herbicidal rating (ZEAMX (Corn, Field); Rate 0.2500 kg/ha) | GLXMAW preemergence herbicidal rating ([4]; Rate 0.1250 kg/ha) | GALAP preemergence herbicidal rating (GALAP (Galium aparine); Rate 0.1250 kg/ha)
4.5: Postemergence herbicidal rating, TRZAWR ([2]; rate 0.0320 kg/ha) | Postemergence herbicidal rating, TRZAWR ([2]; rate 0.0620 kg/ha)
8.0: ABUTH preemergence herbicidal rating ([3]; Rate 0.0620 kg/ha) | TRZAWR preemergence herbicidal rating ([5]; Rate 0.1250 kg/ha) | TRZAWR preemergence herbicidal rating ([5]; Rate 0.2500 kg/ha)
5.5: ZEAMX preemergence herbicidal rating (ZEAMX (Corn, Field); Rate 0.0620 kg/ha)
9.0: ABUTH preemergence herbicidal rating ([3]; Rate 0.1250 kg/ha) | ABUTH preemergence herbicidal rating ([3]; Rate 0.2500 kg/ha) | GLXMAW preemergence herbicidal rating ([4]; Rate 0.2500 kg/ha) | GALAP preemergence herbicidal rating (GALAP (Galium aparine); Rate 0.2500 kg/ha) | Postemergence herbicidal rating, CHEAL ([6]; rate 0.0320 kg/ha) | Postemergence herbicidal rating, CHEAL ([6]; rate 0.0620 kg/ha) | Postemergence herbicidal rating, AMBEL ([8]; rate 0.0320 kg/ha) | Postemergence herbicidal rating, AMBEL ([8]; rate 0.0620 kg/ha)
0.0: herbicidal rating, CYPSE ([1]; rate 0.0320 kg/ha)
3.0: GALAP preemergence herbicidal rating (GALAP (Galium aparine); Rate 0.0620 kg/ha)
6.0: herbicidal rating, CYPSE ([1]; rate 0.1250 kg/ha)
2.0: TRZAWR preemergence herbicidal rating ([5]; Rate 0.0620 kg/ha) | Postemergence herbicidal rating, CASOB ([7]; rate 0.0320 kg/ha)

COC(=O)C(C)Oc1ccsc1-c1nsc2ccc(-n3c(=O)cc(C(F)(F)F)n(C)c3=O)cc12 (stereo not drawn) [Compound 23, methyl 2-[(2-[5-[3,6-dihydro-3-methyl-2,6-dioxo-4-(trifluoromethyl)-1(2H)-pyrimidinyl]-1,2-benzisothiazol-3-yl]-3-thienyl]oxy]propionate]
5.0: Postemergence herbicidal rating, TRZAWR ([2]; rate 0.1250 kg/ha)
4.0: Postemergence herbicidal rating, CHEAL ([6]; rate 0.0620 kg/ha)
6.0: Postemergence herbicidal rating, CHEAL ([6]; rate 0.1250 kg/ha) | Postemergence herbicidal rating, AMBEL ([8]; rate 0.0620 kg/ha)
3.5: Postemergence herbicidal rating, TRZAWR ([2]; rate 0.0620 kg/ha)
1.0: ABUTH preemergence herbicidal rating ([3]; Rate 0.2500 kg/ha) | GALAP preemergence herbicidal rating (GALAP (Galium aparine); Rate 0.2500 kg/ha)
9.0: herbicidal rating, CYPSE ([1]; rate 0.1250 kg/ha) | Postemergence herbicidal rating, AMBEL ([8]; rate 0.1250 kg/ha)
2.0: Postemergence herbicidal rating, CHEAL ([6]; rate 0.0320 kg/ha) | Postemergence herbicidal rating, CASOB ([7]; rate 0.1250 kg/ha) | Postemergence herbicidal rating, AMBEL ([8]; rate 0.0320 kg/ha)
2.5: Postemergence herbicidal rating, TRZAWR ([2]; rate 0.0320 kg/ha)
0.0: ZEAMX preemergence herbicidal rating (ZEAMX (Corn, Field); Rate 0.0620 kg/ha) | ZEAMX preemergence herbicidal rating (ZEAMX (Corn, Field); Rate 0.1250 kg/ha) | ZEAMX preemergence herbicidal rating (ZEAMX (Corn, Field); Rate 0.2500 kg/ha) | herbicidal rating, CYPSE ([1]; rate 0.0320 kg/ha) | ABUTH preemergence herbicidal rating ([3]; Rate 0.0620 kg/ha) | ABUTH preemergence herbicidal rating ([3]; Rate 0.1250 kg/ha) | GLXMAW preemergence herbicidal rating ([4]; Rate 0.0620 kg/ha) | GLXMAW preemergence herbicidal rating ([4]; Rate 0.1250 kg/ha) | GLXMAW preemergence herbicidal rating ([4]; Rate 0.2500 kg/ha) | TRZAWR preemergence herbicidal rating ([5]; Rate 0.0620 kg/ha) | TRZAWR preemergence herbicidal rating ([5]; Rate 0.1250 kg/ha) | TRZAWR preemergence herbicidal rating ([5]; Rate 0.2500 kg/ha) | GALAP preemergence herbicidal rating (GALAP (Galium aparine); Rate 0.0620 kg/ha) | GALAP preemergence herbicidal rating (GALAP (Galium aparine); Rate 0.1250 kg/ha) | Postemergence herbicidal rating, CASOB ([7]; rate 0.0320 kg/ha) | Postemergence herbicidal rating, CASOB ([7]; rate 0.0620 kg/ha)
